Test system: skin
Test: Cumulative skin irritation test, HRIPT (human repeated insult patch test)
Format: in vivo
Set-up: key to skin reactivity (ICDRG criteria): −: Negative (no reaction); ±: Suspicious or slight erythema, etc.; +: Weak reaction (not accompanied by vesicles), erythema, papules; ++: Severe reaction (accompanied by vesicles), erythema, papules, vesicles; +++: Strong reaction, bullae
Details: for Number of subjects showing ±, + or ++ reactivity 1st: 1st patch; for Number of subjects showing ±, + or ++ reactivity 2nd: 2nd patch; for Number of subjects showing ±, + or ++ reactivity 3rd: 3rd patch; for Number of subjects showing ±, + or ++ reactivity 4th: 4th patch; for Number of subjects showing ±, + or ++ reactivity 5th: 5th patch; for Number of subjects showing ±, + or ++ reactivity 6th: 6th patch; for Number of subjects showing ±, + or ++ reactivity 7th: 7th patch; for Number of subjects showing ±, + or ++ reactivity 8th: 8th patch; for Number of subjects showing ±, + or ++ reactivity 9th: 9th patch; for Average reactivity: less than 3 = safe
Procedure: HRIPT (human repeated insult patch test) was performed to evaluate the cumulative skin irritation of quercetin 3-O-[3-O″-(E)-p-coumaroyl][β-D-glucopyranosyl-(1→3)-O-α-L-rhamnopyranosyl-(1→6)-O-β-D-glucopyranoside] and quercetin 3-O-[3-O″-(E)-p-coumaroyl][α-L-rhamnopyranosyl-(1→6)-O-β-D-glucopyranoside] and determine the range of concentration applicable to the skin. Specifically, 15 healthy adult subjects were randomly selected, and 20 μl of a test composition (composition for the skin including an emulsifier, a stabilizer, purified water, etc. in addition to each of the above compounds) containing 0.5% by weight, 1% by weight or 3% by weight of each of the compounds was dropped into each chamber (IQ chamber, Epitest Ltd, Finland) The patch was applied to the upper right side of the back of the subject, and after 24 hours from the application, it was replaced with a new patch. In this way, a total of 9 patches were applied, 3 times a week for 3 weeks. The skin reaction was checked before and after application of each patch. The skin reaction was checked until after 48 hours from the removal of the final patch, and the average reactivity was calculated. The skin reaction was evaluated according to the criteria of the International Contact Dermatitis Research Group (ICDRG). In the above table, “novel substance 31” denotes quercetin 3-O-[3-O″-(E)-p-coumaroyl][β-D-glucopyranosyl-(1→3)-O-α-L-rhamnopyranosyl-(1→6)-O-β-D-glucopyranoside], and “novel substance 32” denotes quercetin 3-O-[3-O″-(E)-p-coumaroyl][α-L-rhamnopyranosyl-(1→6)-O-β-D-glucopyranoside.

[1] = 0.5% by weight, line 1 of 3 (±)
[2] = 0.5% by weight, line 2 of 3 (+)
[3] = 0.5% by weight, line 3 of 3 (++)

CC1OC(OCC2OC(Oc3c(-c4ccc(O)c(O)c4)oc4cc(O)cc(O)c4c3=O)C(O)C(OC(=O)/C=C/c3ccc(O)cc3)C2O)C(O)C(OC2OC(CO)C(O)C(O)C2O)C1O [Novel substance 31, quercetin 3-O-[3-O″-(E)-p-coumaroyl][β-D-glucopyranosyl-(1→3)-O-α-L-rhamnopyranosyl-(1→6)-O-β-D-glucopyranoside]]
Number of subjects showing ±, + or ++ reactivity 1st [1]: 0 number of persons | Number of subjects showing ±, + or ++ reactivity 1st [2]: 0 number of persons | Number of subjects showing ±, + or ++ reactivity 1st [3]: 0 number of persons | Number of subjects showing ±, + or ++ reactivity 2nd [1]: 0 number of persons | Number of subjects showing ±, + or ++ reactivity 2nd [2]: 0 number of persons | Number of subjects showing ±, + or ++ reactivity 2nd [3]: 0 number of persons | Number of subjects showing ±, + or ++ reactivity 3rd [1]: 0 number of persons | Number of subjects showing ±, + or ++ reactivity 3rd [2]: 0 number of persons | Number of subjects showing ±, + or ++ reactivity 3rd [3]: 0 number of persons | Number of subjects showing ±, + or ++ reactivity 4th [1]: 0 number of persons | Number of subjects showing ±, + or ++ reactivity 4th [2]: 0 number of persons | Number of subjects showing ±, + or ++ reactivity 4th [3]: 0 number of persons | Number of subjects showing ±, + or ++ reactivity 5th [1]: 0 number of persons | Number of subjects showing ±, + or ++ reactivity 5th [2]: 0 number of persons | Number of subjects showing ±, + or ++ reactivity 5th [3]: 0 number of persons | Number of subjects showing ±, + or ++ reactivity 6th [1]: 0 number of persons | Number of subjects showing ±, + or ++ reactivity 6th [2]: 0 number of persons | Number of subjects showing ±, + or ++ reactivity 6th [3]: 0 number of persons | Number of subjects showing ±, + or ++ reactivity 7th [1]: 0 number of persons | Number of subjects showing ±, + or ++ reactivity 7th [2]: 0 number of persons | Number of subjects showing ±, + or ++ reactivity 7th [3]: 0 number of persons | Number of subjects showing ±, + or ++ reactivity 8th [1]: 0 number of persons | Number of subjects showing ±, + or ++ reactivity 8th [2]: 0 number of persons | Number of subjects showing ±, + or ++ reactivity 8th [3]: 0 number of persons | Number of subjects showing ±, + or ++ reactivity 9th [1]: 0 number of persons | Number of subjects showing ±, + or ++ reactivity 9th [2]: 0 number of persons | Number of subjects showing ±, + or ++ reactivity 9th [3]: 0 number of persons | Average reactivity (0.5% by weight): 0 | Number of subjects showing ±, + or ++ reactivity 1st (1% by weight, line 1 of 3 (±)): 0 number of persons | Number of subjects showing ±, + or ++ reactivity 1st (1% by weight, line 2 of 3 (+)): 0 number of persons | Number of subjects showing ±, + or ++ reactivity 1st (1% by weight, line 3 of 3 (++)): 0 number of persons | Number of subjects showing ±, + or ++ reactivity 2nd (1% by weight, line 1 of 3 (±)): 0 number of persons | Number of subjects showing ±, + or ++ reactivity 2nd (1% by weight, line 2 of 3 (+)): 0 number of persons | Number of subjects showing ±, + or ++ reactivity 2nd (1% by weight, line 3 of 3 (++)): 0 number of persons | Number of subjects showing ±, + or ++ reactivity 3rd (1% by weight, line 1 of 3 (±)): 0 number of persons | Number of subjects showing ±, + or ++ reactivity 3rd (1% by weight, line 2 of 3 (+)): 0 number of persons | Number of subjects showing ±, + or ++ reactivity 3rd (1% by weight, line 3 of 3 (++)): 0 number of persons | Number of subjects showing ±, + or ++ reactivity 4th (1% by weight, line 1 of 3 (±)): 0 number of persons | Number of subjects showing ±, + or ++ reactivity 4th (1% by weight, line 2 of 3 (+)): 0 number of persons | Number of subjects showing ±, + or ++ reactivity 4th (1% by weight, line 3 of 3 (++)): 0 number of persons | Number of subjects showing ±, + or ++ reactivity 5th (1% by weight, line 1 of 3 (±)): 0 number of persons | Number of subjects showing ±, + or ++ reactivity 5th (1% by weight, line 2 of 3 (+)): 0 number of persons | Number of subjects showing ±, + or ++ reactivity 5th (1% by weight, line 3 of 3 (++)): 0 number of persons | Number of subjects showing ±, + or ++ reactivity 6th (1% by weight, line 1 of 3 (±)): 0 number of persons | Number of subjects showing ±, + or ++ reactivity 6th (1% by weight, line 2 of 3 (+)): 0 number of persons | Number of subjects showing ±, + or ++ reactivity 6th (1% by weight, line 3 of 3 (++)): 0 number of persons | Number of subjects showing ±, + or ++ reactivity 7th (1% by weight, line 1 of 3 (±)): 0 number of persons | Number of subjects showing ±, + or ++ reactivity 7th (1% by weight, line 2 of 3 (+)): 0 number of persons | Number of subjects showing ±, + or ++ reactivity 7th (1% by weight, line 3 of 3 (++)): 0 number of persons | Number of subjects showing ±, + or ++ reactivity 8th (1% by weight, line 1 of 3 (±)): 0 number of persons | Number of subjects showing ±, + or ++ reactivity 8th (1% by weight, line 2 of 3 (+)): 0 number of persons | Number of subjects showing ±, + or ++ reactivity 8th (1% by weight, line 3 of 3 (++)): 0 number of persons | Number of subjects showing ±, + or ++ reactivity 9th (1% by weight, line 1 of 3 (±)): 0 number of persons | Number of subjects showing ±, + or ++ reactivity 9th (1% by weight, line 2 of 3 (+)): 0 number of persons | Number of subjects showing ±, + or ++ reactivity 9th (1% by weight, line 3 of 3 (++)): 0 number of persons | Average reactivity (1% by weight): 0 | Number of subjects showing ±, + or ++ reactivity 1st (3% by weight, line 1 of 3 (±)): 0 number of persons | Number of subjects showing ±, + or ++ reactivity 1st (3% by weight, line 2 of 3 (+)): 0 number of persons | Number of subjects showing ±, + or ++ reactivity 1st (3% by weight, line 3 of 3 (++)): 0 number of persons | Number of subjects showing ±, + or ++ reactivity 2nd (3% by weight, line 1 of 3 (±)): 0 number of persons | Number of subjects showing ±, + or ++ reactivity 2nd (3% by weight, line 2 of 3 (+)): 0 number of persons | Number of subjects showing ±, + or ++ reactivity 2nd (3% by weight, line 3 of 3 (++)): 0 number of persons | Number of subjects showing ±, + or ++ reactivity 3rd (3% by weight, line 1 of 3 (±)): 0 number of persons | Number of subjects showing ±, + or ++ reactivity 3rd (3% by weight, line 2 of 3 (+)): 0 number of persons | Number of subjects showing ±, + or ++ reactivity 3rd (3% by weight, line 3 of 3 (++)): 0 number of persons | Number of subjects showing ±, + or ++ reactivity 4th (3% by weight, line 1 of 3 (±)): 0 number of persons | Number of subjects showing ±, + or ++ reactivity 4th (3% by weight, line 2 of 3 (+)): 0 number of persons | Number of subjects showing ±, + or ++ reactivity 4th (3% by weight, line 3 of 3 (++)): 0 number of persons | Number of subjects showing ±, + or ++ reactivity 5th (3% by weight, line 1 of 3 (±)): 0 number of persons | Number of subjects showing ±, + or ++ reactivity 5th (3% by weight, line 2 of 3 (+)): 0 number of persons | Number of subjects showing ±, + or ++ reactivity 5th (3% by weight, line 3 of 3 (++)): 0 number of persons | Number of subjects showing ±, + or ++ reactivity 6th (3% by weight, line 1 of 3 (±)): 0 number of persons | Number of subjects showing ±, + or ++ reactivity 6th (3% by weight, line 2 of 3 (+)): 0 number of persons | Number of subjects showing ±, + or ++ reactivity 6th (3% by weight, line 3 of 3 (++)): 0 number of persons | Number of subjects showing ±, + or ++ reactivity 7th (3% by weight, line 1 of 3 (±)): 0 number of persons | Number of subjects showing ±, + or ++ reactivity 7th (3% by weight, line 2 of 3 (+)): 0 number of persons | Number of subjects showing ±, + or ++ reactivity 7th (3% by weight, line 3 of 3 (++)): 0 number of persons | Number of subjects showing ±, + or ++ reactivity 8th (3% by weight, line 1 of 3 (±)): 0 number of persons | Number of subjects showing ±, + or ++ reactivity 8th (3% by weight, line 2 of 3 (+)): 0 number of persons | Number of subjects showing ±, + or ++ reactivity 8th (3% by weight, line 3 of 3 (++)): 0 number of persons | Number of subjects showing ±, + or ++ reactivity 9th (3% by weight, line 1 of 3 (±)): 0 number of persons | Number of subjects showing ±, + or ++ reactivity 9th (3% by weight, line 2 of 3 (+)): 0 number of persons | Number of subjects showing ±, + or ++ reactivity 9th (3% by weight, line 3 of 3 (++)): 0 number of persons | Average reactivity (3% by weight): 0 | skin reactivity (ICDRG criteria) (within the content range 0.5, 1, 3% by weight, 9 patches, 15 subjects): −

Reference: patent US10550142B2, “Quercetin-based compound” (AMOREPACIFIC CORPORATION, priority 2016, dated 2020)
